Results reported in patent US10899756B2, “Phosphodiesterase inhibitors and uses thereof” (The Trustees of Columbia University in the City of New York, priority 2013, dated 2021).
Read-outs that look alike come from different tables or passages of the source.

Key:
[1] = system: APP/PS1 mice; assay: Contextual fear conditioning (fear memory); format: in vivo
Procedure: Fear conditioning was assessed as described in B. Gong, O. V. Vitolo, F. Trinchese, S. Liu, M. Shelanski, O. Arancio, Persistent improvement in synaptic and cognitive functions in an Alzheimer mouse model after rolipram treatment, J. Clin. Invest. 114 (2004) 1624-1634; F. Trinchese, S. Liu, F. Battaglia, S. Walter, P. M. Mathews, O. Arancio, Progressive age-related development of Alzheimer-like pathology in APP/PS1 mice, Ann. Neurol. 55 (2004) 801-814; and B. Gong, Z. Cao, P. Zheng, O. V. Vitolo, S. Liu, A. Staniszewski, D. Moolman, H. Zhang, M. Shelanski, O. Arancio, Ubiquitin hydrolase Uch-L1 rescues beta-amyloid-induced decreases in synaptic function and contextual memory, Cell 126 (2006) 775-788; each herein incorporated by reference in its entirety. […] Freezing behavior, defined as the absence of movements except for respiratory excursions, was scored using Freezeview software (Med Associates, St. Albans, Vt.). Contextual fear learning was evaluated 24 hrs after training by measuring freezing responses for 5 min in the same chamber where the mice were trained. Cued fear learning was evaluated 24 hrs after contextual testing. The mice were placed in a novel context for 2 min (pre-CS test), after which they were given a CS for 3 min (CS test), and freezing behavior was measured during the first 30 sec that mimic the CS-US conditioning and the remaining 2.5 min. […]

[2] = Acute toxicity study with histology; format: in vivo; conditions: 120 or 240 mg/kg, i.p.
From the text: Brain, muscle, kidney, and liver were harvested from each mouse, and tissue from each organ was examined histologically by a board-certified pathologist for signs of toxicity.

[3] = system: APP/PS1 mice; assay: 2-day radial arm water maze (reference memory); format: in vivo
Procedure: The radial arm water maze task, a hybrid of the classic Morris Water Maze and the radial arm land maze, was performed as described in J. Alamed, D. M. Wilcock, D. M. Diamond, M. N. Gordon, D. Morgan, Two-day radial-arm water maze learning and memory task; robust resolution of amyloid-related memory deficits in transgenic mice, Nat. Prot. 1 (2006) 1671-1679, herein incorporated by reference in its entirety. The mouse had to swim in 6 alleys (arms) radiating from a central area until it found a hidden (submerged) platform at the end of one of the arms, based on visual cues placed in the room. The first day of the protocol was a training day on which mice were trained to identify the platform location by alternating between a visible and a hidden platform in a goal arm. The final 3 trials on that day and all 15 trials on day 2 used a hidden escape platform to force mice to use spatial cues to identify the location of the goal arm. […] The number of incorrect arm entries (entries to arms with no platform) was counted. […] Failure to select an arm after 15 sec was counted as an error and the mouse was returned to the start arm. […] For data analysis, averages for each mouse were calculated using blocks of 3 trials. […]

[4] = system: LTP in hippocampal slices of APP/PS1 mice; assay: Long-term potentiation in slices after 3 weeks daily i.p. treatment and 9-12 weeks without treatment; format: in vivo; conditions: 3 mg/kg/day i.p. for 3 weeks from 3 months of age, treatment stopped 9-12 weeks prior to testing
Procedure: Transverse hippocampal slices (400 μm) were cut with a tissue chopper (EMS, PA) and maintained in an interface chamber at 29° C. for 90 min prior to recording, as described in Vitolo et al, Proc. Natl. Acad. Sci. USA 2002, 13217-13221, herein incorporated by reference in its entirety. The extracellular bath solution consisted of 124.0 mM NaCl, 4.4 mM KCl, 1.0 mM Na2HPO4, 25.0 mM NaHCO3, 2.0 mM CaCl2, 2.0 mM MgSO4, and 10.0 mM glucose, continuously aerated with 95% O2/5% CO2 to a final pH of 7.4. Field extracellular postsynaptic responses (fEPSPs) were recorded by placing the stimulating and recording electrodes in CA1 stratum radiatum. […] Basal synaptic transmission was first assessed by plotting the stimulus voltages (V) against slopes of fEPSP to generate input-output relations. A 20-30 min baseline was first recorded every minute at an intensity that evoked a response at approximately 35% of the maximum evoked response. […] Responses were measured as fEPSP slopes expressed as percentage of baseline.
Slices from transgenic mice treated with the compound had 226.23%±6.72 potentiation compared to 164.12%±10.37 in slices from vehicle-treated transgenic mice (FIG. 3). Residual potentiation recorded during the last 5 minutes of a 2 hr recording following tetanic stimulation of the Schaffer collateral fibers at the CA3-CA1 connection.

[5] = Pharmacokinetic study, brain and plasma; format: in vivo, C57B16 mice; conditions: 25 mg/kg i.p., mice; for half-life: read-out: t½ (elimination half-life) (converted)
[6] = system: LTP in hippocampal slices of APP/PS1 mice; assay: Long-term potentiation in hippocampal slices, compound through the bath perfusion; conditions: 50 nM bath perfusion
[7] = Metabolite formation (H versus D substitution); format: in vitro ADME; conditions: substitution of H with D; instead of three
[8] = system: APP/PS1 mice; assay: Preliminary studies with sildenafil in APP/PS1 mice; format: in vivo; conditions: persist beyond the administration of the inhibitor
[9] = 3-4 month old APP/PS1 mice, 3 mg/kg i.p. for 3 weeks
[10] = APP/PS1 mice, 3 mg/kg/day i.p. for 3 weeks at 3-4 months, treatment stopped 9-12 weeks, examined at 6-7 months

Q: With `COc1ccc(CNc2c3c(nc4ccc(C#N)cc24)CCN(C(C)=O)C3)cc1Cl` [Compound H, 2-acetyl-10-[(3-chloro-4-methoxybenzyl)amino]-1,2,3,4-tetrahydrobenzo[b][1,6]naphthyridine-8-carbonitrile] as the compound, how does the “freezing, contextual fear memory 24 hrs after shock” value [1, 9] read?
A: ~30%

Q: What about the “freezing, contextual memory” value [1, 10] of the same compound?
A: ~40%

Q: And the “brain sections, CD45 immunostain” value [2]?
A: no signs of inflammation

Q: What about the “brain sections, GFAP immunostain” value [2] of the same compound?
A: no signs of gliosis

Q: What about the “brain sections, H&E” value [2] of the same compound?
A: did not show any signs of toxicity

Q: And the “brain sections, LFB-PAS stain” value [2]?
A: no signs of demyelination

Q: What about the “kidney sections, H&E staining” value [2] of the same compound?
A: no toxicity

Q: What about the “kidney sections, PAS staining” value [2] of the same compound?
A: did not show any abnormalities in the glomerular basement membrane

Q: What about the “kidney sections, trichrome staining” value [2] of the same compound?
A: no fibrosis

Q: What about the “liver sections, H&E staining” value [2] of the same compound?
A: did not show any signs of toxicity

Q: What about the “liver sections, trichrome stain” value [2] of the same compound?
A: no fibrosis or cirrhotic liver disease

Q: And the “muscle sections, H&E” value [2]?
A: no signs of toxicity

Q: And the “muscle sections, trichrome stain” value [2]?
A: no muscle fibrosis

Q: And the “neurotoxicity in the brain” value [2]?
A: no signs of neurotoxicity

Q: And the “errors in the last trial of the 2-day RAWM test” value [3, 9]?
A: 1 to 2 errors

Q: And the “errors in the 2-day RAWM test” value [3, 10]?
A: ~1 error

Q: What about the “residual potentiation (fEPSP slope, percentage of baseline)” value [4] of the same compound?
A: 226.23%±6.72

Q: And the “t½ (elimination half-life)” value ([5]; Brain)?
A: 39 min

Q: What about the “t½ (elimination half-life)” value ([5]; Plasma) of the same compound?
A: 64.2 min

Q: What about the Cmax ([5]; male, C57B16, mouse, ip, Brain) of the same compound?
A: 492 ng/g

Q: And the half-life ([5]; male, C57B16, mouse, ip, Brain)?
A: 39 min

Q: What about the half-life ([5]; male, C57B16, mouse, ip, Plasma) of the same compound?
A: 64.2 min

Q: What about the “effect on potentiation in WT slices” value [6] of the same compound?
A: no effect

Q: With `[2H]C([2H])(Nc1c2c(nc3ccc(C#N)cc13)CCN(C(C)=O)C2)c1ccc(OC)c(Cl)c1` [U] as the compound, how does the “number of metabolites formed” value [7] read?
A: 1

Q: Which “effects on synaptic and cognitive abnormalities” value [8] does the source give for `CCCc1nn(C)c2c(=O)[nH]c(-c3cc(S(=O)(=O)N4CCN(C)CC4)ccc3OCC)nc12` [sildenafil] here?
A: prolonged beneficial effects
